Measurements as given in US5462954A, “Substituted phenyl phenol leukotriene antagonists” (Eli Lilly and Company, priority 1994, dated 1995).
Where a name gives a salt, the structure may show the parent alone.

These compounds were tested against binding of tritiated LTB4 to guinea pig lung membranes (Cavia porcellus, UniProt H0VYV8) (assay: biochemical). Settings: read-out: pKi (mean -log Ki) (converted).
Sequence of binding of tritiated LTB4 to guinea pig lung membranes (H0VYV8 1-348): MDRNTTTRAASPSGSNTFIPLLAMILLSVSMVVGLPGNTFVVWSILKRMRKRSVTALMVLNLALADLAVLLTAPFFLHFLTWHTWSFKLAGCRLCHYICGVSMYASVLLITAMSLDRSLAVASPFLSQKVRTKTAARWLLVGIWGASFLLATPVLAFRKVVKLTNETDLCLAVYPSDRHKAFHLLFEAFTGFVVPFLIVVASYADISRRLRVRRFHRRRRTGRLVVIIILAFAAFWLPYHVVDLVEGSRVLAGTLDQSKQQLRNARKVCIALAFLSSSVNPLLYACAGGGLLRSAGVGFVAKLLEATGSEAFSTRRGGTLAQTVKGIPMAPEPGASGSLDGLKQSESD
Protocol: The effectiveness of compounds of Formula I to inhibit the binding of tritiated LTB4 to guinea pig lung membranes was determined as follows.
The binding reaction was terminated by the addition of 1 mL ice cold wash buffer (25 mM Tris-HCl, pH 7.5) followed immediately by vacuum filtration over Whatman GF/C glass fiber filters using a Brandel (Gaithersburg, Md.) 48 place harvester. The filters were washed three times with 1 mL of wash buffer. Retained radioactivity was determined by liquid scintillation counting at 50% counting efficiency using Ready Protein Plus cocktail (Beckman, Fullerton, Calif.). Nondisplaceable binding was determined in the presence of 1 μM LTB4 and was usually less than 10% of total binding. […] The data reported below is the mean -log Ki, otherwise known as the pKi, for n experiments.

| Ki [nM] | SMILES |
| --- | --- |
| 0.851 | CCc1cc(-c2ccccc2)c(O)cc1OCCCOc1ccc2c(c1CCC(=O)O)CCC(CC(=O)O)C2=O (stereo not drawn) [Example 50, 3-(5-(6-(4-Phenyl-5-hydroxy-2-ethylphenoxy)propoxy)-2-carboxymethyl-1,2,3,4-tetrahydronaphthalen-1(2H)-one)propanoic acid] |
| 8.32 | CCc1cc(-c2ccc(F)cc2)c(O)cc1OCCCOc1cccc(CCC(=O)O)c1 [Example 92, 3-(3-{3-[2-Ethyl-4-(4-fluorophenyl)-5-hydroxyphenyloxy]propoxy}phenyl)propanoic acid] |
| 186 | O=C(O)CCc1ccccc1OCCCOc1cc(O)c(-c2ccc(F)cc2)cc1Br [Example 30, 3-(2-(3-(2-Bromo-4-(4-fluorophenyl)-5-hydroxyphenoxy)propoxy)phenyl)propionic acid] |
| 11.5 | CCCc1c(OCCCOc2cc(O)c(-c3ccccc3)cc2CC)cccc1Oc1ccccc1-c1nnn[nH]1 [Example 63, 5-Ethyl-4-[3-[2-propyl-3-[2-(2H-tetrazol-5-yl)phenoxy]phenoxy]propoxy][1,1'-biphenyl]-2-ol disodium salt sesquihydrate] |
| 1.35 | CCc1cc(-c2ccc(F)cc2)c(O)cc1OCCCOc1cccc(OCCCCc2nnn[nH]2)c1CCC(=O)O [Example 7, 3-(2-(3-(2-Ethyl-4-(4-fluorophenyl)-5-hydroxyphenoxy)propoxy)-6-(4-(1H-tetrazol-5-yl)butyloxy)phenyl)propionic acid] |
| 3.63 | CCc1cc(-c2ccc(F)cc2)c(O)cc1OCCCOc1ccccc1CCC(=O)O [Example 4, 3-(2-(3-(2-Ethyl-4-(4-fluorophenyl)-5-hydroxyphenoxy)propoxy)phenyl)propionic acid] |
| 8.13 | CCCc1c(OCCCOc2cc(O)c(-c3ccc(F)cc3)cc2CC)cccc1Oc1ccccc1CC(=O)O [Example 77, 2-[2-Propyl-3-[3-[2-ethyl-5-hydroxy-4-(4-fluorophenyl)phenoxy]propoxy]phenoxy]phenylacetic acid] |
| 0.245 | CCc1cc(-c2ccc(F)cc2)c(O)cc1OCCCCCC(c1ccc(OCC(=O)O)cc1)c1nn[nH]n1 (stereo not drawn) [Example 85, 1-(4-(Carboxymethoxy)phenyl)-1-(1H-tetrazol-5-yl)-6-(2-ethyl-4-(4-fluorophenyl)-5-hydroxyphenoxy)hexane] |
| 14.1 | CCc1cc(-c2ccc(F)cc2)c(O)cc1OCCCOc1ccccc1CCc1nnn[nH]1 [Example 89, 5-(2-(2-(3-(2-Ethyl-4-(4-fluorophenyl)-5-hydroxyphenoxy)propoxy)phenyl)ethyl)-1H-tetrazole] |
| 12.3 | CCCc1c(OCCCOc2cc(O)c(-c3ccccc3)cc2CC)cccc1Oc1cccc(F)c1C(=O)O [Example 65, 2-Fluoro-6-[2-propyl-3-[3-(2-ethyl-5-hydroxy-4-phenylphenoxy)propoxy]phenoxy]benzoic acid disodium salt] |
| 8.13 | CCCc1c(OCCCOc2cc(O)c(-c3ccc(F)cc3)cc2CC)cccc1Oc1cccc(F)c1C(=O)O [Example 70, 2-Fluoro-6-[2-propyl-3-[3-[2-ethyl-5-hydroxy-4-(4-fluorophenyl)phenoxy]propoxy]phenoxy]benzoic acid disodium salt hydrate] |
| 14.1 | CCc1cc(-c2ccccc2)c(O)cc1OCCCOc1ccc2c(=O)c3ccccc3oc2c1CCC(=O)O [Example 64, 3-[4-[3-[3-(2-Ethyl-5-hydroxy-4-phenylphenoxy)propoxy]-9-oxo-9H-xanthene]]propanoicacid sodium salt hemihydrate] |
| 245 | CCc1cc(-c2ccc(F)cc2)c(O)cc1OCCCOc1ccccc1CCC(=O)N(C)C [Example 18, N,N-Dimethyl-3-(2-(3-(2-ethyl-4-(4-fluorophenyl)-5-hydroxyphenoxy)propoxy)phenyl)propionamide] |
| 2.29 | CCc1cc(-c2ccc(F)cc2)c(O)cc1OCCCOc1ccccc1CCC(=O)NS(=O)(=O)c1ccccc1 [Example 20, N-Phenylsulfonyl-3-(2-(3-(2-ethyl-4-(4-fluorophenyl)-5-hydroxyphenoxy)propoxy)phenyl)propionamide] |
| 5.5 | CCCc1c(CCC(=O)O)cccc1OCCCOc1cc(O)c(-c2ccc(F)cc2)cc1CC [Example 95, 3-(3-{3-[2-Ethyl-4-(4-fluorophenyl)-5-hydroxyphenyloxy]propoxy}-2-propylphenyl)propanoic acid] |
| 5.89 | CCc1cc(-c2ccc(F)cc2)c(O)cc1OCCCOc1cccc(OCCCCSC)c1CCC(=O)O [Example 15, 3-(2-(3-(2-Ethyl-4-(4-fluorophenyl)-5-hydroxyphenoxy)propoxy)-6-(4-methylthiobutyloxy)phenyl)propionic acid] |
| 0.0646 | CCc1cc(-c2ccccc2)c(O)cc1OCCCOc1ccc2c(=O)c3cc(C(=O)O)ccc3oc2c1CCC(=O)O [Example 60, 7-Carboxy-9-oxo-3-[3-(2-ethyl-5-hydroxy-4-phenylphenoxy)propoxy]-9H-xanthene-4-propanoic acid disodium salt monohydrate] |
| 10.2 | CCCc1c(OCCCOc2cc(O)c(-c3ccc(F)cc3)cc2CC)cccc1S(=O)(=O)c1ccccc1C(=O)O [Example 82, 2-[2-Propyl-3-[3-[2-ethyl-4-(4-fluorophenyl)-5-hydroxyphenoxy]propoxy]phenylsulfonyl]benzoic acid hydrate] |
| 20.9 | CCc1cc(-c2ccc(F)cc2)c(O)cc1OCCCOc1cc(OCCCCC(=O)O)ccc1CCC(=O)O [Example 90, 3-(2-(3-(2-Ethyl-4-(4-fluorophenyl)-5-hydroxyphenoxy)propoxy)-4-(4-carboxybutyloxy)phenyl)propionic acid] |
| 20.9 | CCCc1cc(CCC(=O)O)ccc1OCCCOc1cc(O)c(-c2ccc(F)cc2)cc1CC [Example 94, 3-(4-{3-[2-Ethyl-4-(4-fluorophenyl)-5-hydroxyphenyloxy]propoxy}-3-propylphenyl)propanoic acid] |
| 1.35 | CCCc1c(OCCCOc2cc(O)c(-c3ccc(F)cc3)cc2CC)cccc1[S+]([O-])c1ccccc1C(=O)O (stereo not drawn) [Example 81, 2-[2-Propyl-3-[3-[2-ethyl-4-(4-fluorophenyl)-5-hydroxyphenoxy]propoxy]phenylsulfinyl]benzoic acid] |
| 1.2 | CCCc1c(OCCCOc2cc(O)c(-c3ccccc3)cc2CC)ccc2c1OC(C(=O)O)CC2 (stereo not drawn) [Example 54, 7-[3-[(5-Ethyl-2-hydroxy[1,1'-biphenyl]-4-yl)oxy]propoxy]-3,4-dihydro-8-propyl-2H-1-benzopyran-2-carboxylic acid] |
| 0.977 | CCc1cc(-c2ccc(F)cc2)c(O)cc1OCCCOc1cccc(O)c1CCC(=O)O [Example 13, 3-(2-(3-(2-Ethyl-4-(4-fluorophenyl)-5-hydroxyphenoxy)propoxy)-6-hydroxyphenyl)propionic acid] |
| 9.55 | CCCc1c(OCCCOc2cc(O)c(-c3ccc(F)cc3)cc2CC)cccc1C(=O)c1ccccc1C(=O)O [Example 78, 2-[2-Propyl-3-[3-[2-ethyl-5-hydroxy-4-(4-fluorophenyl)phenoxy]propoxy]benzoyl]benzoic acid] |
| 0.525 | CCc1cc(-c2ccc(F)cc2)c(O)cc1OCCCOc1cccc2c1CCC(=O)O2 [Example 91, 5-[3-[4-(4-Fluorophenyl)-2-ethyl-5-hydroxyphenoxy]propoxy]-3,4-dihydro-2H-1-benzopyran-2-one] |

| SMILES | Ki [nM] |
| --- | --- |
| CCCc1ccc(CCC(=O)O)cc1OCCCOc1cc(O)c(-c2ccc(F)cc2)cc1CC [sodium salt] | 102 |
| CCCc1c(OCCCOc2cc(O)c(-c3ccc(F)cc3)cc2CC)cccc1Oc1ccccc1C(=O)O [sodium salt] | 5.62 |
